Assay [1] has as its system Leptospira canicola Kipod 146. Put plainly: Anti leptospiral activity (minimal inhibition concentration). The class given is cell-based. The following applies: for MIC: Leptospira interrogans, KIPOD146, 240 h; for anti leptospiral activity: summary in words. The protocol:
The tests were carried out under the following conditions:
Leptospira: Leptospira canicola Kipod 146
Inoculum: 1-10^5 cells/ml
Incubation time: 10 days, 28° C.
Evaluation: Direct count in dark field microscopy after 4,7 and 10 days.
2 Minimal+0.5% albumin (Pentex)
3 Korthof rich medium with 8% serum.
4 Korthof rich medium with 2% serum.

In the next assay the test system is Trypanosoma. Put plainly: Anti trypanosoma test in vitro. Format: cell-based. The following applies: for Trypanosoma in vitro activity score: 37° C., scoring as in b (promastigotes); for activity against Trypanosoma: summary in words. As for the experimental part: Trypanosoma in RPM1 medium in vitro at 37° C. Scoring as in b.
Another assay relates to L. tropica amastigotes. Put plainly: Anti leishmania test, amastigotes in peritoneal exudate cells in vitro. The class given is cell-based. The following applies: 37° C. The protocol:
(§1) a. amastigotes in peritoneal exudate cells in Mc Coy's medium in vitro at 37° C.
+++=clearance of all parasites in 24 hours
++=clearance of all parasites in 48 hours
+=clearance of all parasites in 72 hours
±=Partial clearance of parasites in 72 hours or more
-=No activity against parasites.

The next assay relates to Leishmania. Put plainly: Anti leishmania tests, summary. The class given is cell-based, L. tropica. The following applies: summary in words. As for the experimental part:
as §1
(§2) b. promastigotes in Mc Coy's medium in vitro at 27° C.

The subject of the next assay is L. tropica promastigotes. Put plainly: Anti leishmania test, promastigotes in vitro. The following applies: 27° C. The class given is cell-based. As for the experimental part: as §2
+++=No viable parasites after 24 hours
++=No viable parasites after 48 hours
+=No viable parasites after 72 hours
±=No viable parasites after 96 hours p2 -=viable parasites after 120 hours.

In assay [2] the test system is albino mice. Put plainly: Stereotyped behaviour in mice. Format: in vivo, Male ICR albino mice. Further details: stereotyped behaviour score / Total Score / Mean Score: scale not given here. The following applies: 50 mg/kg i.p. The protocol: Male ICR albino mice weighing 25-30 g were put in cages with a metal grid floor, 4 in each cage. Drugs were injected intraperitoneally and stereotyped behaviour (sniffing, biting, repetitive head movement) was evaluated every 30 min.

The subject of assay [3] is albino mice. Put plainly: Stereotyped behaviour in mice. Format: in vivo, Male ICR albino mice. Further details: scale not given here. Conditions: 50 mg/kg i.p.
The subject of the next assay is albino rats. Put plainly: Antiparkinson activity (catalepsy produced by haloperidol). Format: in vivo, Male Charles River albino rats. Conditions: 80 mg/kg i.p. As for the experimental part: Male Charles River albino rats, weighing 200-250 g, were used. Catalepsy was produced by haloperidol, 5 mg/kg i.p. The animals were placed with their front paws on a horizontal bar, about 10 cm above the ground, and animals were considered cataleptic if not changing posture for at least 30 sec. Cataleptic animals were injected i.p. with one of the drugs at a dose of 40-80 mg/kg. Catalepsy was estimated again at the intervals indicated.

[4] abbreviates: minimal + Pentex (0.5% albumin).

Structures are written as SMILES. Counter-ions that a name gives are not always drawn.

For orientation: MIC means the least concentration at which growth counts as inhibited. For the compound `CN(C)NC1C2CC3CC(C2)CC1C3` (centres unmarked) [Example 1, 1-(2'-Adamantyl)-2,2-dimethylhydrazine hydrochloride], the MIC in assay [1] (Korthof + 8% serum), in assay [1] (setting [4]) and in assay [1] (minimal medium) was 12.5 µg/mL throughout. The anti leptospiral activity result in assay [1] is reported as “active”.

For the compound `c1ccc(NNC2C3CC4CC(C3)CC2C4)cc1` (centres unmarked) [Example 3, 1-(2'-Adamantyl)-2-phenylhydrazine hydrochloride], the “Trypanosoma in vitro activity score” value is reported as “+ (No viable parasites after 72 hours)” in the assay with Trypanosoma (10 μg) and “+++ (No viable parasites after 24 hours)” with Trypanosoma (100 μg). Moreover, the “activity against Trypanosoma” value in the assay with Trypanosoma is recorded as “active”. In addition, the MIC is 100 µg/mL in assay [1] (Korthof + 8% serum) and 6.25 µg/mL in assay [1] (minimal medium). In addition, in assay [1], the anti leptospiral activity result was “active”.

Regarding `FC(F)(F)c1cccc(NNC2C3CC4CC(C3)CC2C4)c1` (centres unmarked) [Example 6, 1-(2'-Adamantyl)-2-(m-trifluoromethylphenyl)hydrazine hydrochloride], the figures for the MIC in assay [1] (Korthof + 8% serum) and in assay [1] (minimal medium) were 50 µg/mL and 12.5 µg/mL, respectively. In addition, the anti leptospiral activity result in assay [1] is recorded as “active”.

`c1ccc(NNC2C3CC4CC(C3)CC2C4)nc1` (centres unmarked) [Example 8, 1-(2'-Adamantyl)-2-(2"-pyridyl)hydrazine hydrochloride]: the “Trypanosoma in vitro activity score” value with Trypanosoma (10 μg) is “+ (No viable parasites after 72 hours)”; with Trypanosoma (100 μg) it was “+++ (No viable parasites after 24 hours)”. In the assay with Trypanosoma, the “activity against Trypanosoma” value is reported as “active”. Besides, the “Leishmania amastigote activity score” value with L. tropica amastigotes (10 μg) is “+ (clearance of all parasites in 72 hours)”; in the assay on L. tropica amastigotes (100 μg), “+++ (clearance of all parasites in 24 hours)”. The “activity against Leishmania” value with Leishmania is given as “active”.

On to `C1CCCN(NC2C3CC4CC(C3)CC2C4)CC1` (centres unmarked) [Example 11, 1-(2'-Adamantylamino)homopiperidine hydrochloride], for which the entries for the “Trypanosoma in vitro activity score” value in the assay with Trypanosoma (10 μg) and in the assay with Trypanosoma (100 μg) were “+ (No viable parasites after 72 hours)” and “+++ (No viable parasites after 24 hours)”, respectively. The “activity against Trypanosoma” value in the assay on Trypanosoma is recorded as “active”.

As to `CNNC1C2CC3CC(C2)CC1C3` (centres unmarked) [Example 25, 1-(2'-Adamantyl)-2-methylhydrazine hydrochloride], the “Leishmania promastigote activity score” value in the assay on L. tropica promastigotes (100 μg) was “+++ (No viable parasites after 24 hours)”. Also, the “Leishmania amastigote activity score” value in the assay with L. tropica amastigotes (100 μg) is on record as “++ (clearance of all parasites in 48 hours)”. In addition, the “activity against Leishmania” value in the assay on Leishmania was “active”.

As to `CN(CC(=O)O)NC1C2CC3CC(C2)CC1C3` (centres unmarked) [Example 37, [2-(2'-Adamantyl)-1-methylhydrazino]acetic acid hydrochloride], the minimum inhibitory concentration (MIC) in assay [1] (Korthof + 2% serum) was 12.5 µg/mL; in assay [1] (Korthof + 8% serum), 12.5 to 25 µg/mL; in assay [1] (setting [4]), 25 µg/mL; in assay [1] (minimal medium), 25 µg/mL. In addition, the anti leptospiral activity entry in assay [1] is recorded as “active”.

With `CC(C)NNC1C2CC3CC(C2)CC1C3` (centres unmarked) [Example 51, 1-(2'-Adamantyl)-2-isopropylhydrazine hydrochloride], the “Trypanosoma in vitro activity score” value in the assay on Trypanosoma (100 μg) is on record as “+++ (No viable parasites after 24 hours)”. Also, the “activity against Trypanosoma” value in the assay with Trypanosoma was “active”. The entries for the “Leishmania amastigote activity score” value in the assay on L. tropica amastigotes (10 μg) and in the assay on L. tropica amastigotes (100 μg) were “± (Partial clearance of parasites in 72 hours or more)” and “++ (clearance of all parasites in 48 hours)”, respectively. Besides, the “activity against Leishmania” value in the assay with Leishmania is on record as “active”.

`N=C(N)c1ccc(OCCCCCOc2ccc(C(=N)N)cc2)cc1` [Pentamidine, reference compound]: in the assay with Trypanosoma (100 μg), the “Trypanosoma in vitro activity score” value is “++ (No viable parasites after 48 hours)”. The “Leishmania promastigote activity score” value with L. tropica promastigotes (10 μg) and in the assay on L. tropica promastigotes (100 μg) was “+++ (No viable parasites after 24 hours)” throughout.

For `NC12CC3CC(CC(C3)C1)C2` [Symmetrel, reference compound], the stereotyped behaviour score was 0 with albino mice [2] (0 min, mouse 1); 0 in the assay with albino mice [2] (0 min, mouse 2); 0 in the assay with albino mice [2] (0 min, mouse 3); 0 in the assay with albino mice [2] (0 min, mouse 4); 1 in the assay with albino mice [2] (30 min, mouse 1); 1 with albino mice [2] (30 min, mouse 2). For the same compound, the stereotyped behaviour score in the assay on albino mice [2] (30 min, mouse 3) is 1; in the assay on albino mice [2] (30 min, mouse 4), 1; in the assay with albino mice [2] (45 min, mouse 3), 1; in the assay on albino mice [2] (45 min, mouse 4) it was 1; in the assay on albino mice [2] (60 min, mouse 1), 2; in the assay with albino mice [2] (60 min, mouse 2), 2. The stereotyped behaviour score is reported as 1 with albino mice [2] (60 min, mouse 3); 1 with albino mice [2] (60 min, mouse 4); 1 in the assay with albino mice [2] (90 min, mouse 1); 1 with albino mice [2] (90 min, mouse 2); 2 in the assay with albino mice [2] (90 min, mouse 3); 1 with albino mice [2] (90 min, mouse 4). Moreover, the stereotyped behaviour score was determined as 2 with albino mice [2] (120 min, mouse 1); 2 in the assay on albino mice [2] (120 min, mouse 2); 2 with albino mice [2] (120 min, mouse 3); 2 with albino mice [2] (120 min, mouse 4); 2 in the assay with albino mice [2] (135 min, mouse 1); 2 in the assay on albino mice [2] (135 min, mouse 2). The stereotyped behaviour score in the assay with albino mice [2] (150 min, mouse 1) came to 2; in the assay with albino mice [2] (150 min, mouse 2), 2; with albino mice [2] (150 min, mouse 3), 2; in the assay with albino mice [2] (150 min, mouse 4) it was 2; with albino mice [2] (180 min, mouse 1) it was 2; in the assay on albino mice [2] (180 min, mouse 2), 2. Further, the stereotyped behaviour score with albino mice [2] (180 min, mouse 3) was 2; in the assay on albino mice [2] (180 min, mouse 4) it was 2; with albino mice [2] (210 min, mouse 1) it was 2; in the assay with albino mice [2] (210 min, mouse 2) it was 2; in the assay on albino mice [2] (210 min, mouse 3), 2; in the assay on albino mice [2] (210 min, mouse 4), 1. For the same compound, the stereotyped behaviour score in the assay on albino mice [2] (240 min, mouse 1) came out at 2; in the assay with albino mice [2] (240 min, mouse 2), 2; in the assay on albino mice [2] (240 min, mouse 3) it was 2; in the assay on albino mice [2] (240 min, mouse 4) it was 0; with albino mice [3] (45 min, mouse 1), 1; with albino mice [3] (45 min, mouse 2), 1. Also, the stereotyped behaviour score in the assay with albino mice [3] (135 min, mouse 3) turned out to be 2; with albino mice [3] (135 min, mouse 4), 2. Moreover, the “Mean Score” value in the assay with albino mice [2] (mean of 4 mice) came to 16. For the same compound, the “Total Score” value came out at 17 in the assay on albino mice [2] (mouse 1), 17 in the assay with albino mice [2] (mouse 2), 17 with albino mice [2] (mouse 3) and 13 in the assay with albino mice [2] (mouse 4). In addition, the anticataleptic effect in the assay with albino rats (rat 1) is on record as 0/4; in the assay with albino rats (rat 2), 2/4; with albino rats (rat 3), 3/4; with albino rats (rat 4), 3/4; in the assay on albino rats (rat 5), 3/4.
